From patent US12083101B2, “Biaryl derivatives as YAP/TAZ-TEAD protein-protein interaction inhibitors” (Novartis AG, priority 2020, dated 2024) come the findings set out here.

Usually GI50 stands for the concentration at which growth is held to half of that of the control. Low readings indicate more potent growth inhibition, high ones less potent growth inhibition.

Each structure is given as a SMILES string. Read-outs that look alike come from different tables or passages of the source. Where only a bound is given, the exact number is not on record here.

In experiment [1] the test system is MKN-45/Ubc-luc cells. Description: Proliferation assay (resazurin), MKN-45. It is filed as cell-based. The conditions noted are these: 72 hours incubation.
In experiment [2] the target is Avi-humanTEAD4 217-434 / Cy5 labeled humanYAP 60-100 (Homo sapiens (Human), UniProt Q15561). Description: TR-FRET YAP-TEAD4 in-vitro biochemical assay. It is filed as binding. The conditions noted are these: 1 nM Avi-humanTEAD4 217-434, 20 nM Cy5-humanYAP 60-100, 1 h room temperature. A general note: TR-FRET usually uses a lanthanide donor and a delayed reading to cut background.
Avi-humanTEAD4 217-434 / Cy5 labeled humanYAP 60-100, sequence (Q15561 217-434): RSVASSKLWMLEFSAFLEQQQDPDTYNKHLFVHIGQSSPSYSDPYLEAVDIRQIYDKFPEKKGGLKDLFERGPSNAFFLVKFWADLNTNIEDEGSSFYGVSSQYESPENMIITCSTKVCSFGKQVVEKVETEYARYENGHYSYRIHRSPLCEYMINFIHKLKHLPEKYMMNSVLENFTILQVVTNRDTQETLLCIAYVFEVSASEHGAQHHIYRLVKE

The test system of experiment [3] is MKN-45/Ubc-luc cells. Description: Reporter gene specificity control (Ubc-luciferase), MKN-45. A general note: In a reporter assay the amount or activity of a reporter protein is the signal.
The test system of experiment [4] is NCI-H2052 Tet-On shYAP_2371 pLenti6 MCAT_Luc cells. Description: Proliferation assay (resazurin), NCI-H2052. The conditions noted are these: 72 hours incubation. It is filed as cell-based. Summed up:
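The NCI-H2052 line carries a Tet-inducible shRNA against the YAP1 3′UTR and an MCAT luciferase reporter. The day after seeding, it received eleven 2-fold compound dilutions at 0.1% DMSO, and viability was read by resazurin fluorescence.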

Experiment [5] deals with NCI-H2052 Tet-On shYAP_2371 pLenti6 MCAT_Luc cells (YAP-dependent transcription). Description: YAP reporter gene activity assay (MCAT-luciferase), NCI-H2052. It is filed as cell-based. The conditions noted are these: 24 hours incubation, BrightGlo luminescence. An outline of the steps:
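NCI-H2052 cells carrying an MCAT-luciferase reporter and a tetracycline-inducible YAP 3′UTR shRNA were treated with eleven 2-fold compound dilutions (0.1% DMSO) for 24 h at 37 °C. BrightGlo luminescence was background-subtracted and expressed as % of DMSO control. IC50 came from a four-parameter fit; MKN-45/Ubc-luc cells served as the specificity counterscreen.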

Setting [6] is: read-out: Reporter gene assay MKN-45 IC50, MKN-45/Ubc-luc cells (YAP deleted, specificity control), 24 hours incubation.
Setting [7] is: Homo sapiens, MKN-45, 24 h, read-out: Reporter gene assay MKN-45 IC50 [μM], MKN-45/Ubc-luc cells (YAP deleted, specificity control), 24 hours incubation.

Turning to `COc1ccc(C(N)=O)c(-c2c(Cl)ccc3c2C[C@@](CN[C@H]2CC[C@H](O)CC2)(c2ccccc2)O3)c1F` (relative stereo) [Example 27a, 2-((2S,4S)-5-Chloro-2-(((trans-4-hydroxycyclohexyl)amino)methyl)-2-phenyl-2,3-dihydrobenzofuran-4-yl)-3-fluoro-4-methoxybenzamide], the 50% growth inhibitory concentration (GI50) is more than 10000 nM in the experiment on MKN-45/Ubc-luc cells [1] and 81 nM in experiment [4]. The IC50 in experiment [2] was 1 nM; in the experiment on MKN-45/Ubc-luc cells [3] (setting [6]) it was more than 10 µM; in experiment [5], 26 nM.

Take `COc1ccc(C(N)=O)c(-c2c(Cl)ccc3c2C[C@@](CN[C@H]2CC[C@@H](O)CC2)(c2ccccc2)O3)c1F` (relative stereo) [Example 27b, 2-((2S,4S)-5-chloro-2-(((cis-4-hydroxycyclohexyl)amino)methyl)-2-phenyl-2,3-dihydrobenzofuran-4-yl)-3-fluoro-4-methoxybenzamide]: the GI50 in the experiment on MKN-45/Ubc-luc cells [1] is more than 10000 nM; in experiment [4], 182 nM. The IC50 is 1 nM in experiment [2], more than 10 µM in the experiment with MKN-45/Ubc-luc cells [3] (setting [6]) and 78 nM in experiment [5].

Take `COc1ccc(C(N)=O)c(-c2c(Cl)ccc3c2C[C@@](CN[C@H]2CC[C@H](C(=O)O)CC2)(c2ccccc2)O3)c1F` (relative stereo) [Example 28a, (Trans)-4-((((2S,4S)-4-(6-carbamoyl-2-fluoro-3-methoxyphenyl)-5-chloro-2-phenyl-2,3-dihydrobenzofuran-2-yl)methyl)amino)cyclohexanecarboxylic acid]: the GI50 with MKN-45/Ubc-luc cells [1] is more than 10000 nM; in experiment [4], 224 nM. Further, the values for the IC50 (in experiment [2]; in the experiment with MKN-45/Ubc-luc cells [3] (setting [6]); in experiment [5]) were 3 nM, more than 10 µM and 86 nM, respectively.

Regarding `COc1ccc(C(N)=O)c(-c2c(Cl)ccc3c2C[C@@](CN[C@H]2CC[C@@H](C(=O)O)CC2)(c2ccccc2)O3)c1F` (relative stereo) [Example 28b, (cis)-4-((((2S,4S)-4-(6-carbamoyl-2-fluoro-3-methoxyphenyl)-5-chloro-2-phenyl-2,3-dihydrobenzofuran-2-yl)methyl)amino)cyclohexanecarboxylic acid], the 50% growth inhibitory concentration (GI50) with MKN-45/Ubc-luc cells [1] was more than 10000 nM; in experiment [4], 148 nM. Besides, the IC50 in experiment [2] is 3 nM; with MKN-45/Ubc-luc cells [3] (setting [6]), more than 10 µM; in experiment [5], 55 nM.

With `NC(=O)c1ccc(OC(F)F)c(F)c1-c1c(Cl)ccc2c1[C@H](O)[C@@](CN[C@H]1CC[C@H](O)CC1)(c1ccccc1)O2` (relative stereo) [Example 94a, 2-((2S,3S,4S)-5-chloro-3-hydroxy-2-((((trans)-4-hydroxycyclohexyl)amino)methyl)-2-phenyl-2,3-dihydrobenzofuran-4-yl)-4-(difluoromethoxy)-3-fluorobenzamide], the 50% growth inhibitory concentration (GI50) was more than 10000 nM in the experiment on MKN-45/Ubc-luc cells [1] and 68 nM in experiment [4]. Besides, the IC50 in experiment [2] is 2 nM; in the experiment on MKN-45/Ubc-luc cells [3] (setting [6]), more than 10 µM; in experiment [5], 45 nM.

`NC(=O)c1ccc(OC(F)F)c(F)c1-c1c(Cl)ccc2c1[C@H](O)[C@@](CN[C@H]1CC[C@@H](O)CC1)(c1ccccc1)O2` (relative stereo) [Example 94b, 2-((2S,3S,4S)-5-chloro-3-hydroxy-2-((((cis)-4-hydroxycyclohexyl)amino)methyl)-2-phenyl-2,3-dihydrobenzofuran-4-yl)-4-(difluoromethoxy)-3-fluorobenzamide]: the GI50 in the experiment with MKN-45/Ubc-luc cells [1] was more than 10000 nM; in experiment [4], 101 nM. For the same molecule, the IC50 in experiment [2] is 3 nM; in the experiment with MKN-45/Ubc-luc cells [3] (setting [6]), more than 10 µM; in experiment [5], 83 nM.

As for `C[C@H]1c2c(ccc(Cl)c2-c2c(C(N)=O)ccc(OC(F)F)c2F)O[C@]1(CN[C@H]1CC[C@@](C)(O)CC1)c1ccccc1` (relative stereo) [Example 104a, 2-((2S,3S,4S)-5-chloro-2-((((cis)-4-hydroxy-4-methylcyclohexyl)amino)methyl)-3-methyl-2-phenyl-2,3-dihydrobenzofuran-4-yl)-4-(difluoromethoxy)-3-fluorobenzamide], the GI50 was 6200 nM with MKN-45/Ubc-luc cells [1] and 144 nM in experiment [4]. Moreover, the IC50 in experiment [2] was 3 nM; with MKN-45/Ubc-luc cells [3] (setting [6]), more than 10 µM; in experiment [5] it was 35 nM.

For `C[C@H]1c2c(ccc(Cl)c2-c2c(C(N)=O)ccc(OC(F)F)c2F)O[C@]1(CN[C@H]1CC[C@](C)(O)CC1)c1ccccc1` (relative stereo) [Example 104b, 2-((2S,3S,4S)-5-chloro-2-((((trans)-4-hydroxy-4-methylcyclohexyl)amino)methyl)-3-methyl-2-phenyl-2,3-dihydrobenzofuran-4-yl)-4-(difluoromethoxy)-3-fluorobenzamide], the figures for the concentration for 50% growth inhibition (GI50) (in the experiment with MKN-45/Ubc-luc cells [1]; in experiment [4]) were more than 10000 nM and 55 nM, respectively. In addition, the IC50 in experiment [2] was 2 nM; with MKN-45/Ubc-luc cells [3] (setting [6]) it was more than 10 µM; in experiment [5], 22 nM.

Take `NC(=O)c1ccc(OCCO)c(F)c1-c1c(Cl)c(F)cc2c1C[C@@](CN[C@H]1C[C@@H](C(F)F)C1)(c1ccccc1)O2` (relative stereo) [Example 140a, 2-((2S,4S)-5-Chloro-2-((((cis)-3-(difluoromethyl)cyclobutyl)amino)methyl)-6-fluoro-2-phenyl-2,3-dihydrobenzofuran-4-yl)-3-fluoro-4-(2-hydroxyethoxy)benzamide]: the GI50 in the experiment on MKN-45/Ubc-luc cells [1] is more than 10000 nM; in experiment [4], 28 nM. Moreover, the IC50 was 4 nM in experiment [2], more than 10 µM with MKN-45/Ubc-luc cells [3] (setting [6]) and 23 nM in experiment [5].

Take `NC(=O)c1ccc(OCCO)c(F)c1-c1c(Cl)c(F)cc2c1C[C@@](CN[C@H]1C[C@H](C(F)F)C1)(c1ccccc1)O2` (relative stereo) [Example 140b, 2-((2S,4S)-5-chloro-2-((((trans)-3-(difluoromethyl)cyclobutyl)amino)methyl)-6-fluoro-2-phenyl-2,3-dihydrobenzofuran-4-yl)-3-fluoro-4-(2-hydroxyethoxy)benzamide]: the GI50 in the experiment on MKN-45/Ubc-luc cells [1] is more than 10000 nM; in experiment [4], 29 nM. The IC50 in experiment [2] was 6 nM; in the experiment with MKN-45/Ubc-luc cells [3] (setting [6]), more than 10 µM; in experiment [5] it was 28 nM.

For `COc1ccc(C(N)=O)c(-c2c(Cl)ccc3c2C[C@@](CN)(c2ccccc2)O3)c1F` (single isomer, unassigned) [Example 5a], the GI50 was more than 10000 nM in the experiment with MKN-45/Ubc-luc cells [1] and 280 nM in experiment [4]. Also, the IC50 in experiment [2] was 5 nM; in the experiment on MKN-45/Ubc-luc cells [3] (setting [6]), more than 20 µM; in experiment [5], 130 nM.

Turning to `COc1ccc(C(N)=O)c(-c2c(Cl)ccc3c2C[C@@](CN)(c2ccccc2)O3)c1F` (single isomer, unassigned) [Example 5b], the concentration for 50% growth inhibition (GI50) (with MKN-45/Ubc-luc cells [1]; in experiment [4]) was more than 10000 nM each time. The IC50 in experiment [2] was 23300 nM; in the experiment with MKN-45/Ubc-luc cells [3] (setting [6]), more than 10 µM; in experiment [5], more than 10000 nM.

On to `CC(=O)NC1CCC(NC[C@@]2(c3ccccc3)Cc3c(cc(F)c(Cl)c3-c3c(C(N)=O)ccc(OC(F)F)c3F)O2)CC1` (single isomer, unassigned) [Example 56a], for which the GI50 with MKN-45/Ubc-luc cells [1] (Homo sapiens) was more than 10000 nM; in experiment [4] (Homo sapiens, NCI-H2052, 72 h) it was 195 nM. Besides, the IC50 in experiment [2] was 2 nM; in the experiment on MKN-45/Ubc-luc cells [3] (setting [7]), more than 10 µM; in experiment [5] it was 70 nM.

As to `CC(=O)NC1CCC(NC[C@@]2(c3ccccc3)Cc3c(cc(F)c(Cl)c3-c3c(C(N)=O)ccc(OC(F)F)c3F)O2)CC1` (single isomer, unassigned) [Example 56b], the GI50 in the experiment with MKN-45/Ubc-luc cells [1] is more than 10000 nM; in experiment [4], 372 nM. For the same molecule, the IC50 was 11 nM in experiment [2], 7.6 µM in the experiment on MKN-45/Ubc-luc cells [3] (setting [6]) and 194 nM in experiment [5].

Regarding `CN(C)C(=O)C1CCC(NC[C@@]2(c3ccccc3)Cc3c(cc(F)c(Cl)c3-c3c(C(N)=O)ccc(OC(F)F)c3F)O2)CC1` (single isomer, unassigned) [Example 58a], the concentration for 50% growth inhibition (GI50) with MKN-45/Ubc-luc cells [1] (Homo sapiens) is more than 10000 nM; in experiment [4] (Homo sapiens, NCI-H2052, 72 h), 125 nM. Besides, the IC50 in experiment [2] is 4 nM; in the experiment on MKN-45/Ubc-luc cells [3] (setting [7]) it was more than 10 µM; in experiment [5] (Homo sapiens, NCI-H2052, 24 h), 67 nM.

In the case of `CN(C)C(=O)C1CCC(NC[C@@]2(c3ccccc3)Cc3c(cc(F)c(Cl)c3-c3c(C(N)=O)ccc(OC(F)F)c3F)O2)CC1` (single isomer, unassigned) [Example 58b], the GI50 with MKN-45/Ubc-luc cells [1] was more than 10000 nM; in experiment [4], 167 nM. Besides, the figures for the IC50 (in experiment [2]; in the experiment on MKN-45/Ubc-luc cells [3] (setting [6]); in experiment [5]) were 6 nM, more than 10 µM and 104 nM, respectively.

Consider `CC(C)(O)C1CC(NC[C@@]2(c3ccccc3)Cc3c(cc(F)c(Cl)c3-c3c(C(N)=O)ccc(OC(F)F)c3F)O2)C1` (single isomer, unassigned) [Example 62a], for which the results for the GI50 (in the experiment with MKN-45/Ubc-luc cells [1] (Homo sapiens); in experiment [4]) were more than 10000 nM and 240 nM, respectively. Further, the IC50 was 16 nM in experiment [2], more than 10 µM in the experiment with MKN-45/Ubc-luc cells [3] (setting [7]) and 203 nM in experiment [5].

Consider `CC(C)(O)C1CC(NC[C@@]2(c3ccccc3)Cc3c(cc(F)c(Cl)c3-c3c(C(N)=O)ccc(OC(F)F)c3F)O2)C1` (single isomer, unassigned) [Example 62b], for which the GI50 was more than 10000 nM with MKN-45/Ubc-luc cells [1] and 89 nM in experiment [4]. The IC50 is 6 nM in experiment [2], more than 10 µM in the experiment with MKN-45/Ubc-luc cells [3] (setting [6]) and 54 nM in experiment [5].
